The values that follow come from patent US7402433B2, “Method of in-vitro micropropagation of Piper longum plants” (Reliance Life Sciences Pvt. Ltd., priority 2003, dated 2008).

Holding throughout (assay type): cell-based
Experiment [1] concerns root segments (rhizogenic tissues) of Piper longum. The experiment is described as follows: Shoot bud proliferation from root segments on MS medium with BAP. Particulars: 23° C. The protocol: Sub-culturing the 18 root segments separately onto MS basal medium supplemented with Benzyl Amino Purine (BAP) (0.5-3 mg/L), 2-4% sucrose, 100 mg/l myo-inositol and 0.7-1.2% agar for solidifying the medium.
Cultures were kept at 23° C. +/−1° C. under 2000-4000 Lux light intensity for a photoperiod of 16 hours followed by a dark period of 8 hours.
Each segment produced 50-55 adventitious shoot buds i.e. (18×50=900 shoot buds).

Experiment [2] concerns regenerated shoots of Piper longum. The experiment is described as follows: Rooting of regenerated shoots on MS medium with IBA. Particulars: IBA 0.1-3.1 mg/L. The protocol:
2.5-3 cm long shoots with 2-3 nodes were carefully separated from the culture clumps using a sterile scalpel under LF.
Sub-culturing 10 separated shoots in a wide mouthed bottle containing MS basal medium fortified with Indole Butyric Acid (IBA) (1-3 mg/L), 2-4% sucrose, 100 mg/L myo-inositol and 0.7-1.2% agar.
Rooting of the regenerated shoots under reduced light 1000-3000 Lux for 28 days. Photoperiod and temperatures remains the same as before.

Experiment [3] has as its system lateral bud (meristematic) explant of Piper longum. The experiment is described as follows: Induction of rhizogenesis from lateral bud explants on culture initiation medium (MS + NAA). The protocol:
Preparing culture initiation medium by using MS basal medium described by Murashige and Skoog in 1968. To the MS basal medium, sucrose (2-4%), agar powder (0.7-1.2%), 100 mg/L myo-inositol and Naphthalene Acetic Acid (NAA) (0.01-0.5 mg/L) was added. This medium was autoclaved at 15 psi for 20 min and then cooled to solidify at room temperature.
Using sterilized forceps, each isolated and surface sterilized lateral bud was inoculated in a test tube containing 15 ml of above-mentioned medium; by placing the cut end of the lateral buds touching the medium.
Incubating the inoculated explants in dark at 23° C. +/−1° C. for 7-15 days. By this time, 6-7 root primordia appear from the basal cut end of all the lateral buds.
Transferring incubated cultures in light having 2000-4000 lux light intensity.
A photoperiod of 16 hours was provided followed by a dark period of 8 hours daily.
Allowing each root to grow to an average size of […] in 45 days.
A lateral bud (meristematic) explant from any position of a young or mature plant of Piper longum was taken and cultured in an MS basal medium supplemented with sucrose (2-4%), NAA (0.1-0.5 mg/l) and gelled with agar (0.7-1.2%). These were incubated in dark for 10 days at 23° C.±1° C. and transferred to a light intensity of 1000-3000 lux for 16 Hrs. followed by 8 Hrs. dark period resulting into rhizogenesis, producing 6-7 root like organs, by direct organogenosis from meristematic tissues of lateral buds, which grew up to 1.5 cm in length by 45th day of isolation.

For `c1ccc(CNc2ncnc3[nH]cnc23)cc1` [BAP, Benzylaminopurine], in experiment [1] (BAP 0.5-3 mg/L in MS basal medium, 2000-4000 Lux, 16 hours photoperiod), the “adventitious shoot buds produced per root segment” value is listed as 50-55. In addition, the “adventitious shoot bud formation” value in experiment [1] (BAP 0.5-3 mg/L, 0.5 cm long root segments, 2000-4000 lux, 16 Hrs. light/8 Hrs. dark) is recorded as “adventitious shoot bud formation from all the root segments”.
Consider Indole Butyric Acid [IBA], for which the “response of separated shoots (rooting)” value in experiment [2] is “All separated shoots were responsive”. For the same molecule, in experiment [2] (in 4 weeks time), the “root system from the basal cut ends of shoots” value was “produced healthy root system”.
In the case of Naphthalene Acetic Acid [NAA], the “root primordia appearing from the basal cut end of the lateral buds” value in experiment [3] (NAA 0.01-0.5 mg/L in MS basal medium, dark, 23° C. +/−1° C., 7-15 days) is on record as 6-7. The “root like organs produced by direct organogenesis (rhizogenesis)” value in experiment [3] (NAA 0.1-0.5 mg/l in MS basal medium, 10 days dark at 23° C., then 1000-3000 lux 16 Hrs./8 Hrs. dark) is 6-7. Besides, the “length of root like organs” value in experiment [3] (NAA 0.1-0.5 mg/l, by 45th day of isolation) was “up to 1.5 cm”.
